pIC50: −log10 of the molar value.
Molecular target: T1, human O-GlcNAc-β-N-acetylglucosaminidase (OGA) (Homo sapiens, UniProt O60502)
T1 construct: poly-histidine (HIS) tag (N); made in house; host or cells: Sf9 insect cells (Bac-to-Bac baculovirus, pFastBac1)
T1 sequence (O60502 1-916): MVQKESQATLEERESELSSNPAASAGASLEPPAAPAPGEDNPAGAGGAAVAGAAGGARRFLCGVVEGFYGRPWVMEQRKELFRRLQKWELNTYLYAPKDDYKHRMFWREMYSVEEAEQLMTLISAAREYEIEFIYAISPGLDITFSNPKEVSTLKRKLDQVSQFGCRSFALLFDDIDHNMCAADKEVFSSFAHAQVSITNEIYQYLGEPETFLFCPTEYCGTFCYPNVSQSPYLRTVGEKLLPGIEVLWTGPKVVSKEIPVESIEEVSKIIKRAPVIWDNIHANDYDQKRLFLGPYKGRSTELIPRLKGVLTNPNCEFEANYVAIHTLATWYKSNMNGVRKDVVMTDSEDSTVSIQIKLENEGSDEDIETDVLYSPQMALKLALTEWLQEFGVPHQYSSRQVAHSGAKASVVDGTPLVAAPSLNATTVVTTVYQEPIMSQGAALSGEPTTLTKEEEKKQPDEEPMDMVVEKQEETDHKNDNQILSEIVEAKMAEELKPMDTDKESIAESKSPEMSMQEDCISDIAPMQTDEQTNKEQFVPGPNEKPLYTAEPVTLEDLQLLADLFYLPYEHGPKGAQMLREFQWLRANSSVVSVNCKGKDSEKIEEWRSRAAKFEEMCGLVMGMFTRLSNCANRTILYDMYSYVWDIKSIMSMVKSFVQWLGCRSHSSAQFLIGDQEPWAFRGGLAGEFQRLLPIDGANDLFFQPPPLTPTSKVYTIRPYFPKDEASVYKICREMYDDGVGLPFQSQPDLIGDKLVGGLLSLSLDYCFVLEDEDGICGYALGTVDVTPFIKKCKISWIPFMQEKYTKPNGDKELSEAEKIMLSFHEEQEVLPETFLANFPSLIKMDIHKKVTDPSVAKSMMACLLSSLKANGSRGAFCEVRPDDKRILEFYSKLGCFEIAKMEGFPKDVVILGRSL
Test: In Vitro Human OGA Enzyme Assay
Format: biochemical
Conditions: FD-GlcNAc substrate 6.7 μM; 30 min pre-incubation with OGA enzyme; 60 min at room temperature; pH 7; n=3
Protocol: In Vitro Human OGA Enzyme Assay
The nucleotide sequence encoding full-length human O-GlcNAc-β-N-acetylglucosaminidase (NM_012215) is inserted into pFastBac1 (Invitrogen) vector with an N-terminal poly-histidine (HIS) tag. Baculovirus generation is carried out according to the Bac-to-Bac Baculovirus Expression system (Invitrogen) protocol. Sf9 cells are infected at 1.5×10^6 cells/mL using 10 mL of P1 virus per Liter of culture and incubated at 28° C. for 48 hrs. Cells are spun down, rinsed with PBS and the pellets stored at −80° C. […]
Resin is then packed onto column and washed with 50 mM Tris, pH 8.0, 300 mM NaCl, 10% glycerol, 10 mM imidazole, 0.1% Triton™ X-100, 1 mM DTT, followed by 50 mM Tris, pH 8.0, 150 mM NaCl, 10 mM imidazole, 10% glycerol, 1 mM DTT. […] Fractions containing His-OGA are pooled and protein concentration measured with BCA ([…]).
The OGA enzyme catalyses the removal of O-GlcNAc from nucleocytoplasmic proteins. […] This fluorogenic substrate becomes fluorescent upon cleavage by OGA, so that the enzyme activity can be measured by the increase in fluorescence detected at 535 nm (excitation at 485 nm).
The assay buffer is prepared to give a final concentration of 50 mM […], 0.01% bovine serum albumin and 0.01% Triton™ X-100 in water, at pH 7. […] Then, without stopping the reaction, fluorescence is read. […]

pIC50: 9.46
Compound: CC(=O)Nc1nc(F)c(CN2CC[C@H](Oc3cnc(C#N)cn3)C[C@@H]2C)s1 [Example 1, N-[5-[[(2S,4S)-4-(5-cyanopyrazin-2-yl)oxy-2-methyl-1-piperidyl]methyl]-4-fluoro-thiazol-2-yl]acetamide]

Source: patent US11999726B2, “5-methyl-4-fluoro-thiazol-2-yl compounds” (Eli Lilly and Company, priority 2018, dated 2024)
